Here are results for 24 molecules from patent US20250171437A1 (Agios Pharmaceuticals,Inc., priority 2022, published 2025).

A value given as a limit tells only on which side of the number the result lay.

The assay has as its target T1, human PAH with the R408W mutation (A375 R408W cells) (Homo sapiens, UniProt P00439, R408W).
T1 construct: expressed in transfected cells
T1 sequence (P00439 1-452 R408W): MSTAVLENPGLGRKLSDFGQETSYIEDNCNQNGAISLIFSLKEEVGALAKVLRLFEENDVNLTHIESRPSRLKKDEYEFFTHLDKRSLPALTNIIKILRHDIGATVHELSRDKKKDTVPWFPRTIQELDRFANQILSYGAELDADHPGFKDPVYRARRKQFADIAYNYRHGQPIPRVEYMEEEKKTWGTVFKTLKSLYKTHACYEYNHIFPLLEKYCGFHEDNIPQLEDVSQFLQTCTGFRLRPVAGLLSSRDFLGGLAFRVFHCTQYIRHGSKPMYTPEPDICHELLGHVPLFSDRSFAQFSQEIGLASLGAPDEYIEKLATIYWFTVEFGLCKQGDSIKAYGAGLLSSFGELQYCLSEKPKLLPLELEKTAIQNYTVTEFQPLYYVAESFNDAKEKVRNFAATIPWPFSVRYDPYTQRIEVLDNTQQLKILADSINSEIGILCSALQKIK
Kind of assay: Cell Based Phenylalanine Flux Assay. Conditions: A375 R408W cells; 24 hrs with compound, then 20 μM sepiapterin and 800 μM 13C9,15N-Phenylalanine for 4 hours; 13C-Tyrosine by LC-MS; average where tested multiple times. Put shortly:
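A375 cells stably expressing human PAH R408W treated 24 h at 37° C with a 10-point 2-fold dose curve in duplicate, 0.5% DMSO. Then 20 μM sepiapterin and 800 μM 13C9,15N-Phe added for 4 h; 13C-Tyr in media measured by LC-MS to give AC50.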
Regarding `Cc1cc(F)cc2nc([C@@H]3c4nc[nH]c4CCN3C(=O)c3ocnc3C(F)F)oc12` [Example 657, (S)-(4-(difluoromethyl)oxazol-5-yl)(4-(5-fluoro-7-methylbenzo[d]oxazol-2-yl)-6,7-dihydro-1H-imidazo[4,5-c]pyridin-5(4H)-yl)methanone], the AC50 (as a rule, the concentration giving half of the maximal activity seen) was ≤ 500 nM.
The result for `Cc1cc(F)cc2nc([C@H]3c4nc[nH]c4CCN3C(=O)c3ocnc3C(F)F)oc12` [Example 658, (R)-(4-(difluoromethyl)oxazol-5-yl)(4-(5-fluoro-7-methylbenzo[d]oxazol-2-yl)-6,7-dihydro-1H-imidazo[4,5-c]pyridin-5(4H)-yl)methanone] reads ≤ 500 nM; that for `Cc1ccc(C)c2oc([C@@H]3c4nc[nH]c4CCN3C(=O)c3oc(C(C)(C)O)nc3C(F)F)nc12` [Example 659, (S)-(4-(difluoromethyl)-2-(2-hydroxypropan-2-yl)oxazol-5-yl)(4-(4,7-dimethylbenzo[d]oxazol-2-yl)-6,7-dihydro-1H-imidazo[4,5-c]pyridin-5(4H)-yl)methanone], ≤ 500 nM; that for `Cc1ccc(C)c2oc([C@H]3c4nc[nH]c4CCN3C(=O)c3oc(C(C)(C)O)nc3C(F)F)nc12` [Example 660, (R)-(4-(difluoromethyl)-2-(2-hydroxypropan-2-yl)oxazol-5-yl)(4-(4,7-dimethylbenzo[d]oxazol-2-yl)-6,7-dihydro-1H-imidazo[4,5-c]pyridin-5(4H)-yl)methanone], 1000 to 5000 nM.
The result for `O=C(c1oc(-c2ncccn2)nc1C(F)F)N1CCc2[nH]cnc2[C@H]1c1nc2cc(F)ccc2o1` [Example 661, (S)-(4-(difluoromethyl)-2-(pyrimidin-2-yl)oxazol-5-yl)(4-(5-fluorobenzo[d]oxazol-2-yl)-6,7-dihydro-1H-imidazo[4,5-c]pyridin-5(4H)-yl)methanone] reads 1000 to 5000 nM; that for `O=C(c1oc(-c2ncccn2)nc1C(F)F)N1CCc2[nH]cnc2[C@@H]1c1nc2cc(F)ccc2o1` [Example 662, (R)-(4-(difluoromethyl)-2-(pyrimidin-2-yl)oxazol-5-yl)(4-(5-fluorobenzo[d]oxazol-2-yl)-6,7-dihydro-1H-imidazo[4,5-c]pyridin-5(4H)-yl)methanone], 1000 to 5000 nM.
For `COc1cc(F)c2oc([C@@H]3c4nc[nH]c4CCN3C(=O)c3ocnc3C(F)F)nc2c1` [Example 663, (S)-(4-(difluoromethyl)oxazol-5-yl)(4-(7-fluoro-5-methoxybenzo[d]oxazol-2-yl)-6,7-dihydro-1H-imidazo[4,5-c]pyridin-5(4H)-yl)methanone] the value was ≤ 500 nM; for `COc1cc(F)c2oc([C@H]3c4nc[nH]c4CCN3C(=O)c3ocnc3C(F)F)nc2c1` [Example 664, (R)-(4-(difluoromethyl)oxazol-5-yl)(4-(7-fluoro-5-methoxybenzo[d]oxazol-2-yl)-6,7-dihydro-1H-imidazo[4,5-c]pyridin-5(4H)-yl)methanone], ≤ 500 nM; for `Cn1cc(-c2nnc(C(=O)N3CCc4[nH]cnc4[C@H]3c3nc4cc(F)cc(F)c4o3)o2)cn1` [Example 665, (S)-(4-(5,7-difluorobenzo[d]oxazol-2-yl)-6,7-dihydro-1H-imidazo[4,5-c]pyridin-5(4H)-yl)(5-(1-methyl-1H-pyrazol-4-yl)-1,3,4-oxadiazol-2-yl)methanone], ≤ 500 nM.
As to `Cn1cc(-c2nnc(C(=O)N3CCc4[nH]cnc4[C@@H]3c3nc4cc(F)cc(F)c4o3)o2)cn1` [Example 666, (R)-(4-(5,7-difluorobenzo[d]oxazol-2-yl)-6,7-dihydro-1H-imidazo[4,5-c]pyridin-5(4H)-yl)(5-(1-methyl-1H-pyrazol-4-yl)-1,3,4-oxadiazol-2-yl)methanone], the half-maximal activity concentration (AC50) was ≤ 500 nM.
The result for `O=C(c1oc(-c2ncccn2)nc1C(F)F)N1CCc2[nH]cnc2[C@H]1c1nc2cccc(F)c2o1` [Example 667, (S)-(4-(difluoromethyl)-2-(pyrimidin-2-yl)oxazol-5-yl)(4-(7-fluorobenzo[d]oxazol-2-yl)-6,7-dihydro-1H-imidazo[4,5-c]pyridin-5(4H)-yl)methanone] reads ≤ 500 nM; that for `O=C(c1oc(-c2ncccn2)nc1C(F)F)N1CCc2[nH]cnc2[C@@H]1c1nc2cccc(F)c2o1` [Example 668, (R)-(4-(difluoromethyl)-2-(pyrimidin-2-yl)oxazol-5-yl)(4-(7-fluorobenzo[d]oxazol-2-yl)-6,7-dihydro-1H-imidazo[4,5-c]pyridin-5(4H)-yl)methanone], ≤ 500 nM.
Take `Cn1cc(-c2nc(C(F)(F)F)c(C(=O)N3CCc4[nH]cnc4[C@H]3c3nc4cccc(F)c4o3)o2)cn1` [Example 669, (S)-(4-(7-fluorobenzo[d]oxazol-2-yl)-6,7-dihydro-1H-imidazo[4,5-c]pyridin-5(4H)-yl)(2-(1-methyl-1H-pyrazol-4-yl)-4-(trifluoromethyl)oxazol-5-yl)methanone]: the AC50 was ≤ 500 nM.
For the molecule `Cn1cc(-c2nc(C(F)(F)F)c(C(=O)N3CCc4[nH]cnc4[C@@H]3c3nc4cccc(F)c4o3)o2)cn1` [Example 670, (R)-(4-(7-fluorobenzo[d]oxazol-2-yl)-6,7-dihydro-1H-imidazo[4,5-c]pyridin-5(4H)-yl)(2-(1-methyl-1H-pyrazol-4-yl)-4-(trifluoromethyl)oxazol-5-yl)methanone], the AC50 is ≤ 500 nM.
For `O=C(c1nnc(-c2ccc(OC(F)(F)F)cn2)o1)N1CCc2[nH]cnc2[C@H]1c1nc2cc(F)ccc2o1` [Example 671, (S)-(4-(5-fluorobenzo[d]oxazol-2-yl)-6,7-dihydro-1H-imidazo[4,5-c]pyridin-5(4H)-yl)(5-(5-(trifluoromethoxy)pyridin-2-yl)-1,3,4-oxadiazol-2-yl)methanone] the value was 1000 to 5000 nM; for `O=C(c1nnc(-c2ccc(OC(F)(F)F)cn2)o1)N1CCc2[nH]cnc2[C@@H]1c1nc2cc(F)ccc2o1` [Example 672, (R)-(4-(5-fluorobenzo[d]oxazol-2-yl)-6,7-dihydro-1H-imidazo[4,5-c]pyridin-5(4H)-yl)(5-(5-(trifluoromethoxy)pyridin-2-yl)-1,3,4-oxadiazol-2-yl)methanone], 1000 to 5000 nM.
The result for `Cc1ccc2oc([C@@H]3c4nc[nH]c4CCN3C(=O)c3nnc(-c4cnn(C(F)F)c4)o3)nc2c1` [Example 673, (S)-(5-(1-(difluoromethyl)-1H-pyrazol-4-yl)-1,3,4-oxadiazol-2-yl)(4-(5-methylbenzo[d]oxazol-2-yl)-6,7-dihydro-1H-imidazo[4,5-c]pyridin-5(4H)-yl)methanone] reads ≤ 500 nM.
In the case of `Cc1ccc2oc([C@H]3c4nc[nH]c4CCN3C(=O)c3nnc(-c4cnn(C(F)F)c4)o3)nc2c1` [Example 674, (R)-(5-(1-(difluoromethyl)-1H-pyrazol-4-yl)-1,3,4-oxadiazol-2-yl)(4-(5-methylbenzo[d]oxazol-2-yl)-6,7-dihydro-1H-imidazo[4,5-c]pyridin-5(4H)-yl)methanone], the concentration at half-maximal activity (AC50) was in the range of 1000 to 5000 nM.
For `O=C(c1oc(N2CCC(F)CC2)nc1C(F)F)N1CCc2[nH]cnc2[C@@H]1c1nc2cccc(F)c2o1` [Example 675, (R)-(4-(difluoromethyl)-2-(4-fluoropiperidin-1-yl)oxazol-5-yl)(4-(7-fluorobenzo[d]oxazol-2-yl)-6,7-dihydro-1H-imidazo[4,5-c]pyridin-5(4H)-yl)methanone] the value was ≤ 500 nM; for `O=C(c1oc(N2CCC(F)CC2)nc1C(F)F)N1CCc2[nH]cnc2[C@H]1c1nc2cccc(F)c2o1` [Example 676, (S)-(4-(difluoromethyl)-2-(4-fluoropiperidin-1-yl)oxazol-5-yl)(4-(7-fluorobenzo[d]oxazol-2-yl)-6,7-dihydro-1H-imidazo[4,5-c]pyridin-5(4H)-yl)methanone], ≤ 500 nM.
Consider `COc1ccc(-c2nnc(C(=O)N3CCc4[nH]cnc4[C@H]3c3nc4cc(C)ccc4o3)o2)nc1` [Example 677, (S)-(5-(5-methoxypyridin-2-yl)-1,3,4-oxadiazol-2-yl)(4-(5-methylbenzo[d]oxazol-2-yl)-6,7-dihydro-1H-imidazo[4,5-c]pyridin-5(4H)-yl)methanone], for which the AC50 is ≤ 500 nM.
Take `COc1ccc(-c2nnc(C(=O)N3CCc4[nH]cnc4[C@@H]3c3nc4cc(C)ccc4o3)o2)nc1` [Example 678, (R)-(5-(5-methoxypyridin-2-yl)-1,3,4-oxadiazol-2-yl)(4-(5-methylbenzo[d]oxazol-2-yl)-6,7-dihydro-1H-imidazo[4,5-c]pyridin-5(4H)-yl)methanone]: the AC50 fell in the range of 1000 to 5000 nM.
The result for `Cc1ccc2nc([C@@H]3c4nc[nH]c4CCN3C(=O)c3nnc(-c4ncccc4F)o3)oc2c1` [Example 679, (S)-(5-(3-fluoropyridin-2-yl)-1,3,4-oxadiazol-2-yl)(4-(6-methylbenzo[d]oxazol-2-yl)-6,7-dihydro-1H-imidazo[4,5-c]pyridin-5(4H)-yl)methanone] reads 500 to 1000 nM; that for `Cc1ccc2nc([C@H]3c4nc[nH]c4CCN3C(=O)c3nnc(-c4ncccc4F)o3)oc2c1` [Example 680, (R)-(5-(3-fluoropyridin-2-yl)-1,3,4-oxadiazol-2-yl)(4-(6-methylbenzo[d]oxazol-2-yl)-6,7-dihydro-1H-imidazo[4,5-c]pyridin-5(4H)-yl)methanone], 1000 to 5000 nM.
